Results taken from ChEMBL document CHEMBL4190312, “Tau protein aggregation in Alzheimer's disease: An attractive target for the development of novel therapeutic agents” (Eur J Med Chem, 2017).

Assays:
[1] = biological target: T1, Protein O-GlcNAcase (Homo sapiens, UniProt O60502); assay: Competitive inhibition of human O-GlcNAcase by Lineweaver-Burk analysis
T1 sequence (O60502 whole entry): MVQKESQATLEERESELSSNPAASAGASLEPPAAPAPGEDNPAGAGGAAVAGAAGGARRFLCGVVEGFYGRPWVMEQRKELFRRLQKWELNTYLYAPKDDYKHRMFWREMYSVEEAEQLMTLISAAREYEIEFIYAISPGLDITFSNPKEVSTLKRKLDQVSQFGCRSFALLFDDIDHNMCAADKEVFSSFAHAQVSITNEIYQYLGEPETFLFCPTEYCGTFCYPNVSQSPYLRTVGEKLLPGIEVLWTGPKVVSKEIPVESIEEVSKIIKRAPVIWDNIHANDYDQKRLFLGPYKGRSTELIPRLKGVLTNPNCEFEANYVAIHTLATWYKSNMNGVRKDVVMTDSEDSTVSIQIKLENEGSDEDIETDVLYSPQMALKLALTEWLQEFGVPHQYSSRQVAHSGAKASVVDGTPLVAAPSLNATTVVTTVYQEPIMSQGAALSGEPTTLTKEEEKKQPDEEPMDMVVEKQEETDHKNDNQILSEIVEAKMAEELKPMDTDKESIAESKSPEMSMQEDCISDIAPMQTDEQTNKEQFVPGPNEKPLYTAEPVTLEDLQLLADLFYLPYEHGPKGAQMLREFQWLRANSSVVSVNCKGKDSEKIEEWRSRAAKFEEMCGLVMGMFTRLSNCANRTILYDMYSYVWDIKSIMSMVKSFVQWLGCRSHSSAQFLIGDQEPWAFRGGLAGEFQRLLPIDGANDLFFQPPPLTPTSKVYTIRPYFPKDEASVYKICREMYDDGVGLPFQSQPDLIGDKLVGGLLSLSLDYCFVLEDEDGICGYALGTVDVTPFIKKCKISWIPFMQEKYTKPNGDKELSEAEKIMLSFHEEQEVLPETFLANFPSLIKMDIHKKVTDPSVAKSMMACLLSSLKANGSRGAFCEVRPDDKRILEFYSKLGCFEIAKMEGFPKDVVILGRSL

[2] = species: Homo sapiens; assay: Selectivity index, ratio of Ki for human beta-hexosaminidase A to Ki for human O-GlcNAcase
[3] = species: Homo sapiens; assay: Selectivity index, ratio of Ki for human beta-hexosaminidase B to Ki for human O-GlcNAcase

- Ki [1]: 4.1 nM
- Ratio Ki [2]: 900000
- Ratio Ki [3]: 900000
SMILES: C=C/C=C/C(=O)N[C@H]1c2nc(CCc3ccccc3)cn2[C@H](CO)[C@@H](O)[C@@H]1O
